According to article PMC4809294, “STP10 encodes a high-affinity monosaccharide transporter and is induced under low-glucose conditions in pollen tubes of Arabidopsis” (Journal of Experimental Botany, 2016):

Assays:
STP10 (AtSTP10) [1] = biological target: T1, STP10 (AtSTP10) (Arabidopsis thaliana, UniProt Q9LT15); assay: competition of […]glucose uptake in STP10-expressing yeast; type: cell-based; conditions: 10 µM [14C]glucose, 10-fold excess (100 µM) unlabelled competitor
T1 sequence (Q9LT15 1-514): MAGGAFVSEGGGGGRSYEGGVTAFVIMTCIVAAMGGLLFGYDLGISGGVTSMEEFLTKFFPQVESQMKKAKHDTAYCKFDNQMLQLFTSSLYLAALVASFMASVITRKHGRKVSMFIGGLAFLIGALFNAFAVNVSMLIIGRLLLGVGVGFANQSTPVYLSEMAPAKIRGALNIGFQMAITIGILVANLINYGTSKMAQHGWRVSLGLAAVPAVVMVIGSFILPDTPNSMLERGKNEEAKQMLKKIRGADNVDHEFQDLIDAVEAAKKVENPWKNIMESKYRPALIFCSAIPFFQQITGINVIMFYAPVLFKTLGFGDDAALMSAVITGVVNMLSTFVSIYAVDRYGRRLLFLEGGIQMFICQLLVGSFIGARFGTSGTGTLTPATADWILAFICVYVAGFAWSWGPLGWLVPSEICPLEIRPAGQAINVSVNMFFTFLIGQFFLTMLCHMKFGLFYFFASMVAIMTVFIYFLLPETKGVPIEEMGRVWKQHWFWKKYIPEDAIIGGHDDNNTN

STP10 (AtSTP10) [2] = biological target: T1, STP10 (AtSTP10); assay: competition of […]glucose uptake in STP10-expressing yeast; also direct […]galactose uptake; type: cell-based; conditions: 10 µM [14C]glucose, 10-fold excess (100 µM) unlabelled competitor

| % remaining [14C]glucose uptake (STP10 (AtSTP10) [1]) [%] | % remaining [14C]glucose uptake (STP10 (AtSTP10) [2]) [%] | SMILES |
| --- | --- | --- |
| 64 | – | OC[C@H]1OC(O)[C@@H](O)[C@@H](O)[C@@H]1O (some centres unmarked) [mannose] |
| – | 41 | OC[C@H]1OC(O)[C@H](O)[C@@H](O)[C@H]1O (some centres unmarked) [galactose] |
